IC50 data for 20 molecules are collected here from US7420001B2 (Wyeth, priority 2003, dated 2008).

Like-named read-outs stand apart in the source and are kept apart here.

For assay [1], the target named is T1, MMP-2 (Homo sapiens, UniProt P08253).
T1 construct: purchased Oncogene Research Products (Calbiochem) PF023
T1 sequence (P08253 110-660): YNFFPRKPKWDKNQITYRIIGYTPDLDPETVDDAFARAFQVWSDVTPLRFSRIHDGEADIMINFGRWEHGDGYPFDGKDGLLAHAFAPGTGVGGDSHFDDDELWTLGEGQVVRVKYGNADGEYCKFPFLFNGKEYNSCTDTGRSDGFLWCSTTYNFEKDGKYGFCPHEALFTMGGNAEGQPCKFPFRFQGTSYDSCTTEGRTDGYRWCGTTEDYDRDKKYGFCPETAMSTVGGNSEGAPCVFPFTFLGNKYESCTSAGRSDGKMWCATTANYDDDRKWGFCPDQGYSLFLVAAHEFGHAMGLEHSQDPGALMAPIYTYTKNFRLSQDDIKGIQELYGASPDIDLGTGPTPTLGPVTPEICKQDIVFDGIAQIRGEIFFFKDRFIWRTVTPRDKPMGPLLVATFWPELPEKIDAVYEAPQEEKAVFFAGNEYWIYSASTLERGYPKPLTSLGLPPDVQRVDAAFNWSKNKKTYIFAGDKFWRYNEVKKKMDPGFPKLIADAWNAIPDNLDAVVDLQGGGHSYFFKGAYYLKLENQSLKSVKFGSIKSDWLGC
Kind of assay: In-vitro fluorescence assay of MMP-2 activity. In kind it is biochemical. The conditions noted are these: recombinant human MMP-2; read-out: MMP-2 IC50.

Assay [2] concerns the target T2, MMP-12 (Homo sapiens, UniProt P39900).
T2 construct: made in house
Description: In vitro fluorescence assay of MMP-12 activity. In kind it is biochemical. The note with it: recombinant human MMP-12.
Description: A continuous, assay was used in which the substrate is a synthetic peptide containing a fluorescent group (7-methoxycoumarin; Mca) which is quenched by energy transfer to a 2,4-dinitrophenyl group. […] The concentration of the substrate stock was spectrophotometrically determined using the extinction coefficient at 410 nm of 7500 M^−1cm^−1. The assay buffer (pH 7.4) consisted of 50 mM Hepes, 100 mM NaCl, 5 mM CaCl2, and 0.005% Brij-35. […] The plates were then incubated at room temperature for 30 minutes. The enzymatic reactions were initiated by adding substrate to a final concentration of 20 μM and they were mixed by pipetting up and down. The final DMSO concentration in the assay was 10% and the final, total assay volume was 200 μl.

For assay [3], the target named is T3, MMP-13 (Homo sapiens, UniProt P45452).
T3 construct: made in house
Description: In-vitro fluorescence assay of MMP-13 activity. Format: biochemical.

In assay [4] the target is T4, MMP-14 (Homo sapiens, UniProt P50281).
T4 construct: 20 kDa; purchased Chemicon International, Inc. CC 1041
Kind of assay: In-vitro fluorescence assay of MMP-14 activity. In kind it is biochemical. The conditions noted are these: recombinant human catalytic domain of MMP-14.

In assay [5] the target is T5, MMP-1 (Homo sapiens, UniProt P03956).
T5 sequence (P03956 100-269 limits assumed): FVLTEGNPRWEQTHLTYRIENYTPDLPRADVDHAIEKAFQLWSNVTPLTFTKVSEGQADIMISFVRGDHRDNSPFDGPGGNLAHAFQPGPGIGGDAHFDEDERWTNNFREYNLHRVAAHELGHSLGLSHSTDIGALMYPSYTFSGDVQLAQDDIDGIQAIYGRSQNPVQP

Where [6] appears, read: recombinant human catalytic domain of MMP-13, read-out: MMP-13 IC50.

T2 sequence (P39900 106-280 limits assumed): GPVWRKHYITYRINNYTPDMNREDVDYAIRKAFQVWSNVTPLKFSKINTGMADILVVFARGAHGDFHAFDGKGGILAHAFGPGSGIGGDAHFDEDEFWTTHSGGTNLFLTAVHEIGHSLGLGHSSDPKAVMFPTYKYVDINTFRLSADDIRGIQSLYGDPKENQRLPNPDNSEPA

What is called IC50 is the point on the concentration scale where inhibition reaches its midpoint. As to `Cc1c(C(=O)Nc2ccc(-c3ccc(S(=O)(=O)N[C@H](C(=O)O)C(C)C)cc3)cc2)oc2cccc(NC(=O)C3CC3)c12` [Example 47, L-2-(4′-{[4-(Cyclopropanecarbonyl-amino)-3-methyl-benzofuran-2-carbonyl]-amino}-biphenyl-4-sulfonylamino)-3-methyl-butyric acid], the concentration for half-maximal inhibition (IC50) in assay [1] was determined as 4.29 µM; in assay [2], 0.438 µM; in assay [3] (setting [6]), 0.032 µM.
In the same order, the values of `CC(=O)Nc1cccc2oc(C(=O)Nc3ccc(-c4ccc(S(=O)(=O)N[C@H](C(=O)O)C(C)C)cc4)cc3)c(C)c12` [Example 48, L-2-{4′-[(4-Acetylamino-3-methyl-benzofuran-2-carbonyl)-amino]-biphenyl-4-sulfonylamino}-3-methyl-butyric acid] are 3.81 µM, 0.226 µM and 0.025 µM.
In the same order, the values of `COc1cccc2oc(C(=O)Nc3ccc(-c4ccc(S(=O)(=O)N[C@H](C(=O)O)C(C)C)cc4)cc3)c(C)c12` [Example 105, (S)-2-{4′-[(4-Methoxy-3-methyl-benzofuran-2-carbonyl)-amino]-biphenyl-4-sulfonylamino}-3-methyl-butyric acid] are 1.05 µM, 0.06 µM and 0.0095 µM.
The corresponding values for `Cc1c(C(=O)Nc2ccc(-c3ccc(S(=O)(=O)N[C@H](C(=O)O)C(C)C)cc3)cc2)oc2cccc(NS(C)(=O)=O)c12` [Example 36, L-2-{4′-[(4-Methanesulfonylamino-3-methyl-benzofuran-2-carbonyl)-amino]-biphenyl-4-sulfonylamino}-3-methyl-butyric acid] are 2.25 µM, 0.126 µM and 0.011 µM.
In the case of `Cc1ccc2oc(C(=O)Nc3ccc(-c4ccc(S(=O)(=O)N[C@H](C(=O)O)C(C)C)cc4)cc3)nc2c1` [Example 129, (S)-3-Methyl-2-{4′-[(5-methyl-benzooxazole-2-carbonyl)-amino]-biphenyl-4-sulfonylamino}-butyric acid], the IC50 in assay [1] stood at 0.116 µM; in assay [2], 0.0019 µM; in assay [3] (setting [6]) it was 0.0008 µM.
The corresponding values for `CCOc1cccc2oc(C(=O)Nc3ccc(-c4ccc(S(=O)(=O)N[C@H](C(=O)O)C(C)C)cc4)cc3)c(C)c12` [Example 106, (S)-2-{4′-[(4-ethoxy-3-methyl-benzofuran-2-carbonyl)-amino]-biphenyl-4-sulfonylamino}-3-methyl-butyric acid] are 3.59 µM, 0.121 µM and 0.0074 µM.
Take `Cc1c(C(=O)Nc2ccc(-c3ccc(S(=O)(=O)N[C@H](C(=O)O)C(C)C)cc3)cc2)oc2cccc(-c3ccccc3)c12` [Example 109, (S)-3-Methyl-2-{4′-[(3-methyl-4-phenyl-benzofuran-2-carbonyl)-amino]-biphenyl-4-sulfonylamino}-butyric acid]: the IC50 in assay [1] stood at 3.65 µM; in assay [3] (MMP-13 IC50, recombinant human catalytic domain of MMP-13), 0.015 µM; in assay [4], 7 µM; in assay [5] it was 11 µM.
Regarding `Cc1c(C(=O)Nc2ccc(-c3ccc(S(=O)(=O)N[C@H](C(=O)O)C(C)C)cc3)cc2)oc2cccc(OCC3CC3)c12` [Example 51, L-2-{4′-[(4-Cyclopropylmethoxy-3-methyl-benzofuran-2-carbonyl)-amino]-biphenyl-4-sulfonylamino}-3-methyl-butyric acid], the IC50 was 7.11 µM in assay [1], 0.187 µM in assay [2] and 0.011 µM in assay [3] (setting [6]).
For the molecule `CC(C)[C@H](NS(=O)(=O)c1ccc(-c2ccc(NC(=O)c3cccs3)cc2)cc1)C(=O)O` [Example 174, (S)-3-Methyl-2-{4′-[(thiophene-2-carbonyl)-amino]-biphenyl-4-sulfonylamino}-butyric acid], the IC50 in assay [1] is 0.061 µM; in assay [3] (setting [6]) it was 0.025 µM; in assay [4], 6.13 µM; in assay [5] it was 7.4 µM.
In the same order, the values of `CN(CC(=O)O)S(=O)(=O)c1ccc(-c2ccc(NC(=O)c3cc4ccccc4o3)cc2)cc1` [Example 79, N-({4′-[(1-Benzofuran-2-ylcarbonyl)amino]-1,1′-biphenyl-4-yl}sulfonyl)-N-methylglycine] are 0.035 µM, 0.04 µM, 24 µM and 500 µM.
Consider `CC(C)[C@H](NS(=O)(=O)c1ccc(-c2ccc(NC(=O)c3csc(-c4ccncc4)n3)cc2)cc1)C(=O)O` [Example 169, (S)-3-Methyl-2-{4′-[(2-pyridin-4-yl-thiazole-4-carbonyl)-amino]-biphenyl-4-sulfonylamino}-butyric acid], for which the IC50 stood at 1.19 µM in assay [1], 0.075 µM in assay [3] (setting [6]), 40 µM in assay [4] and 40.4 µM in assay [5].
With `CC(C)[C@@H](NS(=O)(=O)c1ccc(-c2ccc(OC(=O)c3cc4ccccc4o3)cc2)cc1)C(=O)O` [Example 135, Benzofuran-2-carboxylic acid 4′-(1-carboxy-2-methyl-propylsulfamoyl)-biphenyl-4-yl ester], the IC50 is 0.0007 µM in assay [1], 0.0005 µM in assay [3] (setting [6]), 2 µM in assay [4] and 20 µM in assay [5].
Regarding `CC#Cc1cccc2oc(C(=O)Nc3ccc(-c4ccc(S(=O)(=O)N[C@H](C(=O)O)C(C)C)cc4)cc3)c(C)c12` [Example 21, L-3-Methyl-2-{4′-[(3-methyl-4-prop-1-ynyl-benzofuran-2-carbonyl)-amino]-biphenyl-4-sulfonylamino}-butyric acid], the IC50 in assay [1] amounted to 15 µM; in assay [2] it was 0.175 µM; in assay [3] (setting [6]), 0.0095 µM.
Turning to `CC(C)[C@H](NS(=O)(=O)c1ccc(-c2ccc(NC(=O)c3ccco3)cc2)cc1)C(=O)O` [Example 175, (S)-2-{4′-[(Furan-2-carbonyl)-amino]-biphenyl-4-sulfonylamino}-3-methyl-butyric acid], the IC50 in assay [1] turned out to be 0.0057 µM; in assay [3] (setting [6]), 0.011 µM; in assay [4], 2.91 µM; in assay [5], 3.09 µM.
For `Cc1nn(C)c2sc(C(=O)Nc3ccc(-c4ccc(S(=O)(=O)N[C@H](C(=O)O)C(C)C)cc4)cc3)cc12` [Example 80, (S)-2-{4′-[(1,3-Dimethyl-1H-thieno[2,3-c]pyrazole-5-carbonyl)-amino]-biphenyl-4-sulfonylamino}-3-methyl-butyric acid], the IC50 was determined as 4.35 µM in assay [1], 0.051 µM in assay [2] and 0.043 µM in assay [3] (setting [6]).
The corresponding values for `COCC#Cc1cccc2oc(C(=O)Nc3ccc(-c4ccc(S(=O)(=O)N[C@H](C(=O)O)C(C)C)cc4)cc3)c(C)c12` [Example 22, L-2-(4′-{[4-(3-Methoxy-prop-1-ynyl)-3-methyl-benzofuran-2-carbonyl]-amino}-biphenyl-4-sulfonylamino)-3-methyl-butyric acid] are 1.94 µM, 0.137 µM and 0.012 µM.
As for `CC(C)[C@@H](NS(=O)(=O)c1ccc(-c2ccc(NC(=O)c3nc4ccccc4s3)cc2)cc1)C(=O)O` [Example 152, D-2-{4′-[(Benzothiazole-2-carbonyl)-amino]-biphenyl-4-sulfonylamino}-3-methyl-butyric acid], the IC50 stood at 0.0011 µM in assay [2] and 0.0007 µM in assay [3] (setting [6]).
With `Cc1c(C(=O)Nc2ccc(-c3ccc(S(=O)(=O)N[C@H](C(=O)O)C(C)C)cc3)cc2)oc2cccc(-c3cccc([N+](=O)[O-])c3)c12` [Example 110, (S)-3-Methyl-2-(4′-{[3-methyl-4-(3-nitro-phenyl)-benzofuran-2-carbonyl]-amino}-biphenyl-4-sulfonylamino)-butyric acid], the IC50 in assay [1] came out at 2.4 µM; in assay [3] (setting [6]), 0.017 µM; in assay [4], 20 µM; in assay [5], 49.6 µM.
For `Cc1c(C(=O)Nc2ccc(-c3ccc(S(=O)(=O)N[C@H](C(=O)O)C(C)C)cc3)cc2)oc2cccc(C#CCN(C)C)c12` [Example 31, L-2-(4′-{[4-(3-Dimethylamino-prop-1-ynyl)-3-methyl-benzofuran-2-carbonyl]-amino}-biphenyl-4-sulfonylamino)-3-methyl-butyric acid], the IC50 in assay [1] was 1.45 µM; in assay [2], 0.155 µM; in assay [3] (setting [6]), 0.016 µM.
As for `CC(C)[C@@H](C(=O)O)N(CCN1CCOCC1)S(=O)(=O)c1ccc(-c2ccc(NC(=O)c3cc4ccccc4o3)cc2)cc1` [Example 82, N-({4′-[(1-Benzofuran-2-ylcarbonyl)amino]-1,1′-biphenyl-4-yl}sulfonyl)-N-(2-morpholin-4-ylethyl)-L-valine], the IC50 in assay [1] is 0.03 µM; in assay [3] (setting [6]), 0.018 µM; in assay [4], over 60 µM; in assay [5], over 10 µM.
